Source: paper PMC6399333, “Synthetic energy sensor AMPfret deciphers adenylate-dependent AMPK activation mechanism” (Nature Communications, 2019)

Key:
[1] = molecular target: T1, AMPK γ1 subunit (in the α2β2γ1 AMPfret heterotrimer) (Rattus norvegicus, UniProt P80385); assay: fluorometric FRET titration of the purified sensor, single-site fit; assay type: binding
T1 construct: gene Prkag1; with AMPK α2 (PRKAA2, Rattus norvegicus) and AMPK β2 (PRKAB2, Homo sapiens)

[2] = molecular target: T1, AMPK γ1 subunit (in the α2β2γ1 AMPfret heterotrimer); assay: fluorometric FRET titration of the purified sensor, single-site fit; also allosteric activation in kinase assay; assay type: binding
Source text: fluorometric FRET titration of the purified sensor, single-site fit; also allosteric activation in kinase assay on AMPK γ1 subunit (in the α2β2γ1 AMPfret heterotrimer) | AMPfret reports binding of AMP (in absence of ATP) at one or more binding sites

T1 sequence (P80385 whole entry): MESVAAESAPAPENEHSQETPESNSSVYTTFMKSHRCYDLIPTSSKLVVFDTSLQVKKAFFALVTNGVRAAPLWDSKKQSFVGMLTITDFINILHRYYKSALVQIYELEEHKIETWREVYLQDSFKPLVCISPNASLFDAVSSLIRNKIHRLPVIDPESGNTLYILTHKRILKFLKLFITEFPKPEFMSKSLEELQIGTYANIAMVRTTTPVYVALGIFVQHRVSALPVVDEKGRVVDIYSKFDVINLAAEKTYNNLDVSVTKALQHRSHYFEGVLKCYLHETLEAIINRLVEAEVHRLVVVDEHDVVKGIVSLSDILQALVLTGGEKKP
T1 sequence (Q09137 whole entry partner): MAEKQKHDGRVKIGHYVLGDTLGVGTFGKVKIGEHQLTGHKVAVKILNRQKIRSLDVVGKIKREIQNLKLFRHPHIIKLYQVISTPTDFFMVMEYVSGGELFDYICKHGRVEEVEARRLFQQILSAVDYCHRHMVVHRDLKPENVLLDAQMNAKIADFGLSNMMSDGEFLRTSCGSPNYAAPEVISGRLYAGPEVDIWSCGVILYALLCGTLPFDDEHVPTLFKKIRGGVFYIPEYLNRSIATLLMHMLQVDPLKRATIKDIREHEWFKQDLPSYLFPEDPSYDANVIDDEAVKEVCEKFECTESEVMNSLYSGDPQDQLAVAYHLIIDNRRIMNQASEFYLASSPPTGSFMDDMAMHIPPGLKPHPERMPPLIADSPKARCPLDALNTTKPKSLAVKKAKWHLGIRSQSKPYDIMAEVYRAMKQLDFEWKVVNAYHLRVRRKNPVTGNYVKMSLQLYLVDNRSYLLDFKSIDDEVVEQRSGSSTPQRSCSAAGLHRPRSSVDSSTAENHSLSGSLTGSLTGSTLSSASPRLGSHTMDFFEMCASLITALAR
T1 sequence (O43741 whole entry partner): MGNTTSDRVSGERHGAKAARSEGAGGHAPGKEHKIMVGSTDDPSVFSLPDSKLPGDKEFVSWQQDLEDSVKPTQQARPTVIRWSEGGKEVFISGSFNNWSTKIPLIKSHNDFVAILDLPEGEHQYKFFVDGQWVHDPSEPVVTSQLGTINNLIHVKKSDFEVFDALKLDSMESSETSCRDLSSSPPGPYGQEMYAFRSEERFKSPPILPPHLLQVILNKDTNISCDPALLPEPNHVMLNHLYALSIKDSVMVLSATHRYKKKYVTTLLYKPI

Row | Kd [1] [µM] | Kd [2] [µM] | Compound
1 | 7.5 |  | Nc1ncnc2c1ncn2[C@@H]1O[C@H](COP(=O)(O)OP(=O)(O)O)[C@@H](O)[C@H]1O [ADP]
2 |  | ~1.5 | Nc1ncnc2c1ncn2[C@@H]1O[C@H](COP(=O)(O)O)[C@@H](O)[C@H]1O [AMP]
